From PMC7571065, “Design, Synthesis, In Vitro and In Silico Studies of New Thiazolylhydrazine-Piperazine Derivatives as Selective MAO-A Inhibitors” (Molecules, 2020)
“Also recorded” adds a separate entry of the source. Read-outs that look alike come from different tables or passages of the source.

Assays:
MAO-A [1] = target: T1, MAO-A (Homo sapiens, UniProt P21397); experiment: In vitro fluorometric MAO-A inhibition assay (Ampliflu Red, tyramine); assay type: biochemical; conditions: for inhibition at 10 µM / inhibition at 1 µM / inhibition at 0.1 µM / inhibition at 0.01 µM / inhibition at 0.001 µM: read-out: MAO-A % Inhibition; for IC50: mean ± SD, read-out: IC50 against MAO-A
T1 construct: purchased Sigma-Aldrich (Steinheim, Germany)
T1 sequence (P21397 1-527): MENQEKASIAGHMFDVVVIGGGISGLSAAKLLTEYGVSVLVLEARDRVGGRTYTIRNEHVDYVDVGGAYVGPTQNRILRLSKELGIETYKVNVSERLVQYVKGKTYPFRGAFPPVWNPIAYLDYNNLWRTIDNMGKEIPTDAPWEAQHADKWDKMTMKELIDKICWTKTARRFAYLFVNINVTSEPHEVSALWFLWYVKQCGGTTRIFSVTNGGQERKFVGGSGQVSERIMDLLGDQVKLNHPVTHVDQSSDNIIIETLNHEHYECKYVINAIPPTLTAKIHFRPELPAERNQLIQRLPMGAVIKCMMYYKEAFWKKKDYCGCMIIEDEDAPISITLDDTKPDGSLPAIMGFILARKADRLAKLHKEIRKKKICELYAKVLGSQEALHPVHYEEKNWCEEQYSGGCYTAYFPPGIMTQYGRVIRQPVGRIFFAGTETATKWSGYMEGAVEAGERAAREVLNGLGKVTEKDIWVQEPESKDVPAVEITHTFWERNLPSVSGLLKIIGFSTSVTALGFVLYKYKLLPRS

recombinant MAO-B = target: T2, recombinant MAO-B (Homo sapiens, UniProt P27338); experiment: In vitro fluorometric MAO-B inhibition assay (Ampliflu Red, tyramine); assay type: biochemical
T2 construct: purchased Sigma-Aldrich (Steinheim, Germany)
T2 sequence (P27338 1-520): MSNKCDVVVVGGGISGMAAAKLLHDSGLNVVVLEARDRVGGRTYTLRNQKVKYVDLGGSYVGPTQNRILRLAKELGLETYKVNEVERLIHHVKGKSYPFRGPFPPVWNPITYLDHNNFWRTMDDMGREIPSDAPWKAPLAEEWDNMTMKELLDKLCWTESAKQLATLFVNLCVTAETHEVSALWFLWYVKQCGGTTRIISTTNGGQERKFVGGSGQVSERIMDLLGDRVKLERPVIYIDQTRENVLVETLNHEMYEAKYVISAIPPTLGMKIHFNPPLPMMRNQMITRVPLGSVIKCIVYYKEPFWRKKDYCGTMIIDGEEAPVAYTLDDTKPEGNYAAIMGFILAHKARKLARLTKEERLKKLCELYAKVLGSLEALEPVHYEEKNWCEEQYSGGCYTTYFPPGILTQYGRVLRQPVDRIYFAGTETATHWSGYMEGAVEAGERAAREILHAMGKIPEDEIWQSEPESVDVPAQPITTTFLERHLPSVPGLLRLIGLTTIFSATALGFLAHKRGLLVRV

MAO-A [2] = target: T1, MAO-A; experiment: Enzyme kinetic studies (Lineweaver-Burk and secondary plot); assay type: biochemical
Method: The same materials were used in the MAO inhibition assay. […] All processes were evaluated in quadruplicate. The results were analyzed by means of Microsoft Office Excel 2013 as Lineweaver-Burk diagrams. […] of the Lineweaver-Burk plots were replotted versus the inhibitor concentration, and the Ki values were determined from the x-axis intercept as Ki.
The MAO-A inhibition mechanism was defined by conducting enzyme kinetics experiments utilizing a protocol close to that of the MAO inhibition assay. […] To estimate the type of inhibition of this compound, linear Lineweaver-Burk graphs were used. The velocity curves of the substrates were reported in the absence and presence of compound 3e. In each case, the initial velocity measurements were collected at various concentrations of substrates (tyramine) varying from 20 μM to 0.625 μM.
According to the Lineweaver-Burk plots, the type of inhibition consists of two general classes: reversible and irreversible. Mixed-type, uncompetitive, competitive and noncompetitive inhibition types are included in the reversible inhibition. […] Competitive inhibition is seen if the lines intersect on the y-axis, and the slopes and x-intercepts are different. On the contrary, non-competitive inhibition has the opposite result: the plotted lines have the same x-intercept but there are diverse slopes and y-intercepts.

Cytotoxicity MTT assay = assay type: cell-based; conditions: mouse, NIH/3T3 mouse embryonic fibroblast cells, tested 1 mM to 0.000316 mM, read-out: IC50 NIH/3T3 Cell Line
Method: The NIH/3T3 mouse embryonic fibroblast cell line (ATCC® CRL-1658 ™, London, UK) was used for cytotoxicity assays. The incubation period of NIH/3T3 cells was based on the supplier’s recommendation. NIH/3T3 cells were seeded at 1 × 10^4 cells into each well of 96-well plates. MTT assay was carried out in accordance with the standards previously described manner.

| SMILES | inhibition at 1000 µM (MAO-A [1]; 10^−3 M) [%] | inhibition at 100 µM (MAO-A [1]; 10^−4 M) [%] | inhibition at 1000 µM (recombinant MAO-B; 10^−3 M) [%] | inhibition at 100 µM (recombinant MAO-B; 10^−4 M) [%] | melting point [°C] | further results |
| --- | --- | --- | --- | --- | --- | --- |
| COc1ccc(-c2csc(NN=Cc3ccc(N4CCN(C)CC4)cc3)n2)cc1 [Compound 3c, 2-{2-[4-(4-Methylpiperazin-1-yl)benzylidene]hydrazinyl}-4-(4-methoxyphenyl)thiazole] | 92.1 ± 2.22 | 87.7 ± 1.87 | 30.3 ± 0.812 | 21.5 ± 0.879 | 226 to 228 | inhibition at 10 µM (MAO-A [1]; 10^−5 M): 75.4 ± 1.43%; inhibition at 1 µM (MAO-A [1]; 10^−6 M): 71 ± 1.09%; inhibition at 0.1 µM (MAO-A [1]; 10^−7 M): 48.3 ± 0.869%; inhibition at 0.01 µM (MAO-A [1]; 10^−8 M): 30.9 ± 0.711%; inhibition at 0.001 µM (MAO-A [1]; 10^−9 M): 21.8 ± 0.638%; IC50 (MAO-A [1]): 0.188 ± 0.008 µM |
| Cc1ccc(-c2csc(NN=Cc3ccc(N4CCN(C)CC4)cc3)n2)c(C)c1 [Compound 3j, 2-{2-[4-(4-Methylpiperazin-1-yl)benzylidene]hydrazinyl}-4-(2,4-dimethylphenyl)thiazole] | 72.3 ± 1.03 | 38.1 ± 0.798 | 28.1 ± 0.901 | 20 ± 0.792 | 238 to 240 | – |
| CN1CCN(c2ccc(C=NNc3nc(-c4ccccc4)cs3)cc2)CC1 [Compound 3a, 2-{2-[4-(4-Methylpiperazin-1-yl)benzylidene]hydrazinyl}-4-phenylthiazole] | 68.1 ± 1.03 | 34.3 ± 0.851 | 32.3 ± 0.985 | 25 ± 0.721 | 254 to 255 | – |
| CN1CCN(c2ccc(C=NNc3nc(-c4ccc([N+](=O)[O-])cc4)cs3)cc2)CC1 [Compound 3e, 2-{2-[4-(4-Methylpiperazin-1-yl)benzylidene]hydrazinyl}-4-(4-nitrophenyl)thiazole] | 95.3 ± 1.9 | 90.8 ± 1.73 | 39.1 ± 0.81 | 28.2 ± 0.791 | – | inhibition at 10 µM (MAO-A [1]; 10^−5 M): 85 ± 1.03%; inhibition at 1 µM (MAO-A [1]; 10^−6 M): 82.4 ± 1.39%; inhibition at 0.1 µM (MAO-A [1]; 10^−7 M): 63.9 ± 0.893%; inhibition at 0.01 µM (MAO-A [1]; 10^−8 M): 42.6 ± 0.835%; inhibition at 0.001 µM (MAO-A [1]; 10^−9 M): 23 ± 0.715%; IC50 (MAO-A [1]): 0.057 ± 0.002 µM; inhibition type (MAO-A [2]; Lineweaver-Burk plots): competitive and reversible; also recorded: reversible and competitive; Ki (MAO-A [2]; secondary plot, substrate tyramine, read-out: Ki (steady-state inhibition constant)): 0.011 µM; IC50 (Cytotoxicity MTT assay): > 1000 µM |
| Cc1ccc(-c2csc(NN=Cc3ccc(N4CCN(C)CC4)cc3)n2)cc1 [Compound 3b, 2-{2-[4-(4-Methylpiperazin-1-yl)benzylidene]hydrazinyl}-4-(4-methylphenyl)thiazole] | 71 ± 1.11 | 31.5 ± 0.732 | 34.6 ± 0.886 | 27.6 ± 0.649 | 252 to 254 | – |
| CN1CCN(c2ccc(C=NNc3nc(-c4ccc(Cl)cc4Cl)cs3)cc2)CC1 [Compound 3l, 2-{2-[4-(4-Methylpiperazin-1-yl)benzylidene]hydrazinyl}-4-(2,4-chlorophenyl)thiazole] | – | – | – | – | – | MAO-A % Inhibition (MAO-A [1]; 10^−3 M): 73.521 ± 1.180%; MAO-A % Inhibition (MAO-A [1]; 10^−4 M): 40.578 ± 0.914%; MAO-B % Inhibition (recombinant MAO-B; 10^−3 M): 33.667 ± 0.991%; MAO-B % Inhibition (recombinant MAO-B; 10^−4 M): 21.373 ± 0.769% |
| CN1CCN(c2ccc(C=NNc3nc(-c4ccc(Br)cc4)cs3)cc2)CC1 [Compound 3h, 2-{2-[4-(4-Methylpiperazin-1-yl)benzylidene]hydrazinyl}-4-(4-bromophenyl)thiazole] | 70.8 ± 1.32 | 37.9 ± 0.796 | 34.4 ± 0.824 | 22.1 ± 0.796 | 253 to 255 | – |
| CN1CCN(c2ccc(C=NNc3nc(-c4ccc(C#N)cc4)cs3)cc2)CC1 [Compound 3d, 2-{2-[4-(4-Methylpiperazin-1-yl)benzylidene]hydrazinyl}-4-(4-cyanophenyl)thiazole] | 90.2 ± 2.04 | 84.4 ± 1.81 | 36.6 ± 0.903 | 26 ± 0.836 | 234 to 235 | inhibition at 10 µM (MAO-A [1]; 10^−5 M): 81.1 ± 1.94%; inhibition at 1 µM (MAO-A [1]; 10^−6 M): 79 ± 1.25%; inhibition at 0.1 µM (MAO-A [1]; 10^−7 M): 49.6 ± 0.811%; inhibition at 0.01 µM (MAO-A [1]; 10^−8 M): 30.6 ± 0.699%; inhibition at 0.001 µM (MAO-A [1]; 10^−9 M): 18.1 ± 0.593%; IC50 (MAO-A [1]): 0.117 ± 0.004 µM |
| CN1CCN(c2ccc(C=NNc3nc(-c4ccc(Cl)cc4)cs3)cc2)CC1 [Compound 3g, 2-{2-[4-(4-Methylpiperazin-1-yl)benzylidene]hydrazinyl}-4-(4-chlorophenyl)thiazole] | 73.7 ± 1.11 | 33.5 ± 0.833 | 31.2 ± 0.789 | 24 ± 0.623 | 249 to 250 | – |
| CN1CCN(c2ccc(C=NNc3nc(-c4ccc(-c5ccccc5)cc4)cs3)cc2)CC1 [Compound 3i, 2-{2-[4-(4-Methylpiperazin-1-yl)benzylidene]hydrazinyl}-4-([1,1’-biphenyl]-4-yl)thiazole] | 66.2 ± 0.972 | 41.5 ± 0.87 | 30.6 ± 0.836 | 21.5 ± 0.809 | 275 to 276 | – |
| CN1CCN(c2ccc(C=NNc3nc(-c4ccc(F)cc4)cs3)cc2)CC1 [Compound 3f, 2-{2-[4-(4-Methylpiperazin-1-yl)benzylidene]hydrazinyl}-4-(4-fluorophenyl)thiazole] | 75.9 ± 1.24 | 40.7 ± 0.98 | 30.7 ± 0.912 | 24.7 ± 0.854 | 247 to 249 | – |
| C#CCN(C)CCCOc1ccc(Cl)cc1Cl [Clorgiline, clorgiline, reference compound] | – | – | – | – | – | inhibition at 0.001 µM (MAO-A [1]): 22.5 ± 0.736%; inhibition at 0.01 µM (MAO-A [1]): 34.2 ± 0.841%; inhibition at 0.1 µM (MAO-A [1]): 65.2 ± 0.997%; inhibition at 1 µM (MAO-A [1]): 78.5 ± 1.02%; inhibition at 10 µM (MAO-A [1]): 87.6 ± 1.46% |
| CN1CCN(c2ccc(C=NNc3nc(-c4ccc(F)cc4F)cs3)cc2)CC1 [Compound 3k, 2-{2-[4-(4-Methylpiperazin-1-yl)benzylidene]hydrazinyl}-4-(2,4-difluorophenyl)thiazole] | 80 ± 1.3 | 35.1 ± 0.833 | 29.6 ± 0.782 | 23.2 ± 0.876 | 250 to 251 | – |
